Source: ChEMBL document CHEMBL3352660, “Design, synthesis and pharmacological evaluation of novel polycyclic heteroarene ethers as PDE10A inhibitors: part II” (Bioorg Med Chem Lett, 2014)

What was measured:
Rattus norvegicus [1] = assay: Antipsychotic activity in Sprague-Dawley rat prepulse inhibition deficit model assessed as reversal of MK-801-induced effect at 1 mg/kg, ip administered 20 mins prior to MK-801 challenge relative to vehicle-treated control; type: functional; design: scale not given: the % may be the effect or the level left; conditions: route intraperitoneal
Rattus norvegicus [2] = assay: Antipsychotic activity in Sprague-Dawley rat […] assessed as reversal of MK-801-induced stereotypy at 3 mg/kg, ip administered 2 hrs prior to MK-801 challenge measured every 5 mins for 1 hr starting 15 mins post MK-801 injection relative to vehicle-treated control; type: functional; conditions: route intraperitoneal
Rattus norvegicus [3] = assay: Antipsychotic activity in Sprague-Dawley rat […] assessed as reversal of MK-801-induced ataxia at 3 mg/kg, ip administered 2 hrs prior to MK-801 challenge measured every 5 mins for 1 hr starting 15 mins post MK-801 injection relative to vehicle-treated control; type: functional; conditions: route intraperitoneal
Rattus norvegicus [4] = assay: Antipsychotic activity in Sprague-Dawley rat conditioned avoidance response model assessed as avoidance of shock at 3 mg/kg, ip measured after 30 mins relative to vehicle-treated control; type: functional; conditions: route intraperitoneal
Rattus norvegicus [5] = assay: Antipsychotic activity in Sprague-Dawley rat […] assessed as reversal of MK-801-induced locomotion at 3 mg/kg, ip administered 2 hrs prior to MK-801 challenge measured every 5 mins for 1 hr starting 15 mins post MK-801 injection relative to vehicle-treated control; type: functional; conditions: route intraperitoneal
[6] = target: 3',5'-cyclic-AMP phosphodiesterase 4D (Homo sapiens) (UniProt Q08499); assay: Inhibition of human recombinant PDE4D using [3H]-cAMP as substrate at 1 uM after 30 mins by two-step radiometric assay
Chain of 3',5'-cyclic-AMP phosphodiesterase 4D (Homo sapiens) (Q08499 whole entry): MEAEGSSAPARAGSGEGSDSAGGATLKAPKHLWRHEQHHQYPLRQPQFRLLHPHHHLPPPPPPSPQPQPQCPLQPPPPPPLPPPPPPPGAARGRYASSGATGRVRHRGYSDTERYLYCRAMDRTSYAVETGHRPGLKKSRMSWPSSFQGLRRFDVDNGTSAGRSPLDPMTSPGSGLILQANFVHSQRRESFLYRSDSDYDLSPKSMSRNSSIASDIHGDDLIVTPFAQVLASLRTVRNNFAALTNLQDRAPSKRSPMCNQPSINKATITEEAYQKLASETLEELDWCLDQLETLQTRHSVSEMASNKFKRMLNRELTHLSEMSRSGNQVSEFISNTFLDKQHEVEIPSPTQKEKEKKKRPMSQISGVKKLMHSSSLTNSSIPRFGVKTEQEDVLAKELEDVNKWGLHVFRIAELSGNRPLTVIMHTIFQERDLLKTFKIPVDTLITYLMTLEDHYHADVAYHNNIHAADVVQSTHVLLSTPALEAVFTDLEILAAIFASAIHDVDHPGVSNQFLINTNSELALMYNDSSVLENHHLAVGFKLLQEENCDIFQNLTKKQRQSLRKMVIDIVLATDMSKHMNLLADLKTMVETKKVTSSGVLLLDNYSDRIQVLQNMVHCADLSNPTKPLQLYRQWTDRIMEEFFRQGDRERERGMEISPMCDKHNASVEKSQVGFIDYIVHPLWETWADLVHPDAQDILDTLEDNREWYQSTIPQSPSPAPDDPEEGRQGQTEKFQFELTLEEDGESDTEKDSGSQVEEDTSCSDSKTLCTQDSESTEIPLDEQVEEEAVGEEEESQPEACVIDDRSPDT

[7] = target: Dual 3',5'-cyclic-AMP and -GMP phosphodiesterase 11A (Homo sapiens) (UniProt Q9HCR9); assay: Inhibition of human recombinant PDE11A using [3H]-cAMP as substrate at 10 uM after 30 mins by two-step radiometric assay
[8] = Metabolic stability in cynomolgus monkey liver microsomes incubated for 10 mins prior to NADPH addition measured after 60 mins by LC/MS/MS analysis; type: ADME, Macaca fascicularis; conditions: read-out: Stability
[9] = target: cGMP-inhibited 3',5'-cyclic phosphodiesterase 3A (Homo sapiens) (UniProt Q14432); assay: Inhibition of human recombinant PDE3A using cAMP as substrate at 10 uM after 30 mins by HTRF method
Chain of cGMP-inhibited 3',5'-cyclic phosphodiesterase 3A (Homo sapiens) (Q14432 whole entry): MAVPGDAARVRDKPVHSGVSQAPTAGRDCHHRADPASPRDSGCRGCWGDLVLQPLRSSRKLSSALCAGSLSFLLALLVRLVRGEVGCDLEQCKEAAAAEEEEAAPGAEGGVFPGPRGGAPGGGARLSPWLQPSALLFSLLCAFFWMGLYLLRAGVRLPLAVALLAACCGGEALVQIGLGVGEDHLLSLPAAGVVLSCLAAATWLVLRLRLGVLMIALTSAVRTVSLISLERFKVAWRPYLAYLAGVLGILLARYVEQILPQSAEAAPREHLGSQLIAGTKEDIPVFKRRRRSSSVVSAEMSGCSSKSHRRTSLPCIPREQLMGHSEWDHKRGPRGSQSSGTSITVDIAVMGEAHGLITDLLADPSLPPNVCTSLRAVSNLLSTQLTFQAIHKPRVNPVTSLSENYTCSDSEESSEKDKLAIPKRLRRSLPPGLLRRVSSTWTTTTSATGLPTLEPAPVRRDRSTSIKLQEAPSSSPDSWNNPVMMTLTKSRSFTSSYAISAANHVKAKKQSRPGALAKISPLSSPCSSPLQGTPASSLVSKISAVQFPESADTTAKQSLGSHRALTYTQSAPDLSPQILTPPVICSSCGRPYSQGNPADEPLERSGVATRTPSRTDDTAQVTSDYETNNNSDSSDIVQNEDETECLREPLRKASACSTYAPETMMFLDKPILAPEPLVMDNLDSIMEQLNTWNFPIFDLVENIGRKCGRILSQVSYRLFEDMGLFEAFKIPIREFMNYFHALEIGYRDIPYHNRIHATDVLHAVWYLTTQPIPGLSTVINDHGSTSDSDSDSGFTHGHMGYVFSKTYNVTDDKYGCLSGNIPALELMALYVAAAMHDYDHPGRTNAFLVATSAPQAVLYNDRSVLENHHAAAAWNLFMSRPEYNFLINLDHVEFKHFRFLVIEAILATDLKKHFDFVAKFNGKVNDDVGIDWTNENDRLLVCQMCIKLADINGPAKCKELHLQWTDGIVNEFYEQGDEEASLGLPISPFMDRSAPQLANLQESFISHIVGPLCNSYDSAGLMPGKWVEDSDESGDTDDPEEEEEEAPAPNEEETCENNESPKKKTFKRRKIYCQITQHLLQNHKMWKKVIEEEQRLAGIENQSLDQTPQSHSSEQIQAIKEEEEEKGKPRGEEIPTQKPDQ

[10] = target: cGMP-inhibited 3',5'-cyclic phosphodiesterase 3A (Homo sapiens) (UniProt Q14432); assay: Inhibition of human recombinant PDE3A using cAMP as substrate at 1 uM after 30 mins by HTRF method
[11] = target: cGMP-dependent 3',5'-cyclic phosphodiesterase (Homo sapiens) (UniProt O00408); assay: Inhibition of human recombinant PDE2A using cAMP as substrate at 1 uM after 30 mins by HTRF method
Chain of cGMP-dependent 3',5'-cyclic phosphodiesterase (Homo sapiens) (O00408 whole entry): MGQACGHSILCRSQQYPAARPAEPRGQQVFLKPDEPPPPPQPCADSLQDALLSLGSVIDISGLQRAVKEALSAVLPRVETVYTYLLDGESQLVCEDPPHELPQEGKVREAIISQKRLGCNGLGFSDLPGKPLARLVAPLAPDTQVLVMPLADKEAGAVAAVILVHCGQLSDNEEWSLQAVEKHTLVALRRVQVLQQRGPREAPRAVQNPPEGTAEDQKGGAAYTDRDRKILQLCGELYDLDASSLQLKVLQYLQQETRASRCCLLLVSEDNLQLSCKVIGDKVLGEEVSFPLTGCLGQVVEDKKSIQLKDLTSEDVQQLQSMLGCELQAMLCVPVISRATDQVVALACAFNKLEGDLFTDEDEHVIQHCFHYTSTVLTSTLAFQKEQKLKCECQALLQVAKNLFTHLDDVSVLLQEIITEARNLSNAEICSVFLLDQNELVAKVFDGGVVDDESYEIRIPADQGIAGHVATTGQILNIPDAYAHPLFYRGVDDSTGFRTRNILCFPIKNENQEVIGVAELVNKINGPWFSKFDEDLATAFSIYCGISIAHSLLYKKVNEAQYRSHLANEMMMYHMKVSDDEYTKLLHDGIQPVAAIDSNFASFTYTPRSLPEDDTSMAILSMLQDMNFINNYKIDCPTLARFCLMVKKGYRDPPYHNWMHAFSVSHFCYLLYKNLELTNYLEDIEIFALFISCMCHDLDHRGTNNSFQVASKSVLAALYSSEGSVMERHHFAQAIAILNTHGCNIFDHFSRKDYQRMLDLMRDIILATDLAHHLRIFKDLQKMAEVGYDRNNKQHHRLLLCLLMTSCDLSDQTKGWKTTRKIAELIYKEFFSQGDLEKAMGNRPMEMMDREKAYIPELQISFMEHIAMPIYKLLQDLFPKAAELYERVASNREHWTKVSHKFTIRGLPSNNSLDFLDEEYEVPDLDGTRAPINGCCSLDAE

[12] = target: cGMP-specific 3',5'-cyclic phosphodiesterase (Homo sapiens) (UniProt O76074); assay: Inhibition of human recombinant PDE5A using […] as substrate at 10 uM after 30 mins by scintillation proximity assay
[13] = target: cGMP-dependent 3',5'-cyclic phosphodiesterase (Homo sapiens) (UniProt O00408); assay: Inhibition of human recombinant PDE2A using cAMP as substrate at 10 uM after 30 mins by HTRF method
[14] = target: cGMP-specific 3',5'-cyclic phosphodiesterase (Homo sapiens) (UniProt O76074); assay: Inhibition of human recombinant PDE5A using […] as substrate at 1 uM after 30 mins by scintillation proximity assay
[15] = target: T1, cAMP and cAMP-inhibited cGMP 3',5'-cyclic phosphodiesterase 10A (Homo sapiens, UniProt Q9Y233); assay: Inhibition of human recombinant GST-tagged PDE10A using [3H]-cAMP as substrate at 1 uM after 30 mins by scintillation proximity assay
T1 sequence (Q9Y233 whole entry): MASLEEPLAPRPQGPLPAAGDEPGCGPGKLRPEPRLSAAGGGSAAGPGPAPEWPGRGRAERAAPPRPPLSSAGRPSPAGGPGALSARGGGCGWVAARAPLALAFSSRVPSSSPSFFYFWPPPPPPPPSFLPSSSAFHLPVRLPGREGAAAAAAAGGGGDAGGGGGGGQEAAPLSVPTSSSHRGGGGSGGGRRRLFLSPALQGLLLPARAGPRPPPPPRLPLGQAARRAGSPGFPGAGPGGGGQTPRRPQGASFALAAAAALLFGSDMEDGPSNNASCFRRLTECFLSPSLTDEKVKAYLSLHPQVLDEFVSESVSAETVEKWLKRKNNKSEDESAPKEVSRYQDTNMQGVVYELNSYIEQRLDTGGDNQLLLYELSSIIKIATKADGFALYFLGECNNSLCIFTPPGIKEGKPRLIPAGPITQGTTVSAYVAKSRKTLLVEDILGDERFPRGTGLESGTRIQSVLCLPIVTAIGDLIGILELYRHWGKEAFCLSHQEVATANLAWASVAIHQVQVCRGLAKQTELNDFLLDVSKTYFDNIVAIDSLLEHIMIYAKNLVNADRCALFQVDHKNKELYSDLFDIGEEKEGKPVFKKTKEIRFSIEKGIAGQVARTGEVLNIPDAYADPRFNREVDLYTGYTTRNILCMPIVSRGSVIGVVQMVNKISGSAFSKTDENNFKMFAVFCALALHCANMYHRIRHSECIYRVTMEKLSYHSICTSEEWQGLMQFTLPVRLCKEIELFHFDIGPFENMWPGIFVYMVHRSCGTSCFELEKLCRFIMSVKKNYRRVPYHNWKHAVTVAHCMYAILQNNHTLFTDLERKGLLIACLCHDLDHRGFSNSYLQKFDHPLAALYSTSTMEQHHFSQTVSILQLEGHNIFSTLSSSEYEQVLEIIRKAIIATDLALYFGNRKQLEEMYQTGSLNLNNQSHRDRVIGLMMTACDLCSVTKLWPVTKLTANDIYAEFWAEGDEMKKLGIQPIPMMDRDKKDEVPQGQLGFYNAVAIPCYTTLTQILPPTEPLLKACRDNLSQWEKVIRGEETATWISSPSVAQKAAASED

[16] = Metabolic stability in Wistar rat liver microsomes incubated for 10 mins prior to NADPH addition measured after 60 mins by LC/MS/MS analysis; type: ADME; conditions: read-out: Stability
[17] = Metabolic stability in CD1 mouse liver microsomes incubated for 10 mins prior to NADPH addition measured after 60 mins by LC/MS/MS analysis; type: ADME; conditions: read-out: Stability
[18] = Metabolic stability in human liver microsomes incubated for 10 mins prior to NADPH addition measured after 60 mins by LC/MS/MS analysis; type: ADME; conditions: read-out: Stability
[19] = target: High affinity 3',5'-cyclic-AMP phosphodiesterase 7A (Homo sapiens) (UniProt Q13946); assay: Inhibition of human recombinant PDE7A using [3H]-cAMP as substrate at 10 uM after 30 mins by two-step radiometric assay
Chain of High affinity 3',5'-cyclic-AMP phosphodiesterase 7A (Homo sapiens) (Q13946 whole entry): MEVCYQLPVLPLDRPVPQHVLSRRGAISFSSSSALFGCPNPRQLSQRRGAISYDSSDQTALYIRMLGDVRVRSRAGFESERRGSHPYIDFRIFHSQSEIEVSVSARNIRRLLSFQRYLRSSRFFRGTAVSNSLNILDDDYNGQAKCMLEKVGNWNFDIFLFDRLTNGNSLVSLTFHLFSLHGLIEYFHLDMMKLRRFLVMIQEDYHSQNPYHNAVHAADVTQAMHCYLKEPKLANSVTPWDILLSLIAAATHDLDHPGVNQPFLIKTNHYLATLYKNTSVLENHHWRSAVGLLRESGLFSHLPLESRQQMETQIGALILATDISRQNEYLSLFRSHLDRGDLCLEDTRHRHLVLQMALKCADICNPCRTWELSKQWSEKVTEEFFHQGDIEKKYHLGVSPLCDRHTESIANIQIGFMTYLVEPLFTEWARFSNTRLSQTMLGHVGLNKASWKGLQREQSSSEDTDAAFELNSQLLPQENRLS

[20] = target: High affinity 3',5'-cyclic-AMP phosphodiesterase 7A (Homo sapiens) (UniProt Q13946); assay: Inhibition of human recombinant PDE7A using [3H]-cAMP as substrate at 1 uM after 30 mins by two-step radiometric assay
[21] = target: Dual 3',5'-cyclic-AMP and -GMP phosphodiesterase 11A (Homo sapiens) (UniProt Q9HCR9); assay: Inhibition of human recombinant PDE11A using [3H]-cAMP as substrate at 1 uM after 30 mins by two-step radiometric assay
[22] = Metabolic stability in Beagle dog liver microsomes incubated for 10 mins prior to NADPH addition measured after 60 mins by LC/MS/MS analysis; type: ADME, Canis lupus familiaris; conditions: read-out: Stability
[23] = target: T2, cAMP and cAMP-inhibited cGMP 3',5'-cyclic phosphodiesterase 10A (Rattus norvegicus, UniProt Q9QYJ6); assay: Inhibition of rat recombinant GST-tagged PDE10A using [3H]-cAMP as substrate by scintillation proximity assay
T2 sequence (Q9QYJ6 whole entry): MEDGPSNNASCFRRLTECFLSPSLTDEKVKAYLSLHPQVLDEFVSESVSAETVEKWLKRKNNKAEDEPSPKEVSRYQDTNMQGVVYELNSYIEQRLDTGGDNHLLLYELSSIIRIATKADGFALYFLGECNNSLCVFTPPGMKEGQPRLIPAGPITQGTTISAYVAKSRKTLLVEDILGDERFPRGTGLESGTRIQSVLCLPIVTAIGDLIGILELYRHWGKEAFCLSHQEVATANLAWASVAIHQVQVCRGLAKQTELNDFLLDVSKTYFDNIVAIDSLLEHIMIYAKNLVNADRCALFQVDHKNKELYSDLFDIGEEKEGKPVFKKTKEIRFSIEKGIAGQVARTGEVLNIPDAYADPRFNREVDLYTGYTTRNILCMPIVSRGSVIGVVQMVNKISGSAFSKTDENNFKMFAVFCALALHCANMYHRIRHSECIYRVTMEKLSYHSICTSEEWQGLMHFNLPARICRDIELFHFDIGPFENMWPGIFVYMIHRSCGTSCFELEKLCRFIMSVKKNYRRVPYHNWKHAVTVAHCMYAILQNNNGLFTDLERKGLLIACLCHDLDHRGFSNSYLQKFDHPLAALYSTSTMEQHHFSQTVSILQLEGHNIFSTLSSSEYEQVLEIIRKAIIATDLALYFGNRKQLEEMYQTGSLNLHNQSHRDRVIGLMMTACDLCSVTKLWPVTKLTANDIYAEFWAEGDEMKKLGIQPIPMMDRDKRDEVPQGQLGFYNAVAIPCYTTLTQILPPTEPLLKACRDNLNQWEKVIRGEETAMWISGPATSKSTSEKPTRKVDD

[24] = target: T3, cAMP and cAMP-inhibited cGMP 3',5'-cyclic phosphodiesterase 10A (Mus musculus, UniProt Q8CA95); assay: Inhibition of mouse recombinant GST-tagged PDE10A using [3H]-cAMP as substrate after 30 mins by scintillation proximity assay
T3 sequence (Q8CA95 whole entry): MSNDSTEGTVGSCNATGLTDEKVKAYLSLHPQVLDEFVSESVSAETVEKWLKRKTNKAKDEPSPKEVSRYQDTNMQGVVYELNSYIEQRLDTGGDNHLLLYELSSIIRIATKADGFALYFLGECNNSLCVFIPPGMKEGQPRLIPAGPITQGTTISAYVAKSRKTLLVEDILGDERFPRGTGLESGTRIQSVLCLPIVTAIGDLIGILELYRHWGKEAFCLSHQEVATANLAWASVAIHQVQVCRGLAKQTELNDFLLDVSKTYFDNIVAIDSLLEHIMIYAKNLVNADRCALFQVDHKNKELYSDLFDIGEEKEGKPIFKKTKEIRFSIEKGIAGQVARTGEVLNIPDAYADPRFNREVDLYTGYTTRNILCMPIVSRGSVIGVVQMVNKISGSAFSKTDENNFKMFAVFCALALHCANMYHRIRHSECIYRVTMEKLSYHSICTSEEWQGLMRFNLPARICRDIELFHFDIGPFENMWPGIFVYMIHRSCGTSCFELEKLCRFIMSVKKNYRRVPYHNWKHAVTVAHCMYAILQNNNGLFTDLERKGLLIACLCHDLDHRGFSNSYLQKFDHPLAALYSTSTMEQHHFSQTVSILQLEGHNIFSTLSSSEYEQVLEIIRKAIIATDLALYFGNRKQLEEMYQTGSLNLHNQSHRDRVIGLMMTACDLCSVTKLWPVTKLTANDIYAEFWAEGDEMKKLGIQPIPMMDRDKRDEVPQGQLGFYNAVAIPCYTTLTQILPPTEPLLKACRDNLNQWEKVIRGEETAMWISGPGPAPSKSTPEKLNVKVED

[25] = target: T1, cAMP and cAMP-inhibited cGMP 3',5'-cyclic phosphodiesterase 10A; assay: Inhibition of human recombinant GST-tagged PDE10A using [3H]-cAMP as substrate after 30 mins by scintillation proximity assay
[26] = target: 3',5'-cyclic-AMP phosphodiesterase 4D (Homo sapiens) (UniProt Q08499); assay: Inhibition of human recombinant PDE4D using [3H]-cAMP as substrate at 10 uM after 30 mins by two-step radiometric assay

Structure (SMILES) | inhibition [6] [%] | inhibition [7] [%] | remaining at 1 h [8] [%] | inhibition [9] [%] | inhibition [10] [%] | inhibition [11] [%] | inhibition [12] [%] | inhibition [13] [%] | inhibition [14] [%] | inhibition [15] [%] | remaining at 1 h [16] [%] | remaining at 1 h [17] [%] | remaining at 1 h [18] [%] | inhibition [19] [%] | inhibition [20] [%] | inhibition [21] [%] | remaining at 1 h [22] [%] | IC50 [23] [nM] | IC50 [24] [nM] | IC50 [25] [nM] | other results
Cc1nc2n(c(=O)c1CCN1CCC(c3noc4cc(F)ccc34)CC1)CCCC2 [RISPERIDONE] |  |  |  |  |  |  |  |  |  |  |  |  |  |  |  |  |  |  |  |  | Activity (Rattus norvegicus [1]): 67%
Cn1cc(-c2ccncc2)c(-c2ccc(OCc3ccc4ccccc4n3)cc2)n1 [MARDEPODECT] |  |  |  |  |  |  |  |  |  |  |  |  |  |  |  |  |  |  |  |  | Activity (Rattus norvegicus [2]): 32%; Activity (Rattus norvegicus [3]): 18%; Activity (Rattus norvegicus [4]): 96%; Activity (Rattus norvegicus [5]): 80%
Cc1cnc2c(-c3ccc(Oc4ncccc4-c4ccncc4)cc3)cn(C)c2c1 | 0 | 8.3 | 13.7 | 6.4 | 0.9 | 24.9 | 16.7 | 43 | 9.6 | 98.3 | 46.2 | 48.1 | 62.5 | 28.3 | 3.7 | 0.1 | 32.3 | 0.8 | 1.2 | 0.3 | inhibition [26]: 10.8%
Cn1cc(-c2ccc(Oc3nccnc3-c3ccncc3)cc2)c2nc3ccccc3cc21 | 0 | 6.8 | 71 | 2.5 | 0.8 | 5.3 | 19.3 | 34.1 | 9.4 | 97.2 | 75 | 75.1 | 96 | 15.8 | 4 | 0.8 | 92 | 29.4 | 22.6 | 8.54 | inhibition [26]: 7.6%
Cn1cc(-c2ccc(Oc3ncccc3-c3ccncc3)cc2)c2ncccc21 | 0.9 | 29 | 39.8 | 7.4 | 0.1 | 16.6 | 23.2 | 69.6 | 2.2 | 98 | 38.4 | 40.2 | 59.6 | 39.9 | 5 | 3 | 39.7 | 5.8 | 4.1 | 1.3 | inhibition [26]: 18%
